Experiments:
Na^+ /H^+ exchanger = target: T1, Na^+ /H^+ exchanger (Oryctolagus cuniculus, UniProt P23791); test: Inhibition of the Na+/H+ exchanger of rabbit erythrocytes; format: cell-based; details: amiloride-sensitive Na+ influx, pH 7.4, 37° C.
T1 construct: endogenous in cells; host or cells: rabbit erythrocytes (blood of cholesterol-fed White New Zealand rabbits)
Text: Inhibition of the Na^+ /H^+ exchanger of rabbit erythrocytes
White New Zealand rabbits (Ivanovas) were given a standard diet containing 2% of cholesterol for six weeks so as to activate the Na^+ /H^+ exchange in order to be able to determine the Na^+ influx into the erythrocytes via Na^+ /H^+ exchange by means of flame photometry. The blood was sampled from the auricular artery and made incoagulable by addition of 25 IE of potassium heparin. Part of each sample was used for a repeated hematocrit measurement by centrifuging. 100 μl aliquots were used for measuring the initial Na^+ content of the erythrocytes.
To determine the amiloride-sensitive sodium influx, 100 μl of each blood sample were incubated in in each case 5 ml of a hyperosmolaric salt/sucrose medium (mmol/l: 140 NaCl, 3 KCl, 150 sucrose, 0.1 ouabain, 20 tris-hydroxymethylaminomethane) at pH 7.4 and 37° C. […] The intracellular sodium content was determined by flame photometry.
The Na^+ net influx was calculated from the difference between the initial sodium values and the sodium content of the erythrocytes after incubation. The sodium influx which can be inhibited by amiloride was determined from the difference of the sodium content of the erythrocytes after incubation with and without amiloride 3×10^-4 mol/l. […]

[1] = in vivo; cited from earlier work
[2] = tested on: artificially induced ventricular fibrillation; details: rats' hearts; Eur. Heart J. 9 (suppl. 1): 167 (1988); cited from earlier work

T1 sequence (P23791 whole entry): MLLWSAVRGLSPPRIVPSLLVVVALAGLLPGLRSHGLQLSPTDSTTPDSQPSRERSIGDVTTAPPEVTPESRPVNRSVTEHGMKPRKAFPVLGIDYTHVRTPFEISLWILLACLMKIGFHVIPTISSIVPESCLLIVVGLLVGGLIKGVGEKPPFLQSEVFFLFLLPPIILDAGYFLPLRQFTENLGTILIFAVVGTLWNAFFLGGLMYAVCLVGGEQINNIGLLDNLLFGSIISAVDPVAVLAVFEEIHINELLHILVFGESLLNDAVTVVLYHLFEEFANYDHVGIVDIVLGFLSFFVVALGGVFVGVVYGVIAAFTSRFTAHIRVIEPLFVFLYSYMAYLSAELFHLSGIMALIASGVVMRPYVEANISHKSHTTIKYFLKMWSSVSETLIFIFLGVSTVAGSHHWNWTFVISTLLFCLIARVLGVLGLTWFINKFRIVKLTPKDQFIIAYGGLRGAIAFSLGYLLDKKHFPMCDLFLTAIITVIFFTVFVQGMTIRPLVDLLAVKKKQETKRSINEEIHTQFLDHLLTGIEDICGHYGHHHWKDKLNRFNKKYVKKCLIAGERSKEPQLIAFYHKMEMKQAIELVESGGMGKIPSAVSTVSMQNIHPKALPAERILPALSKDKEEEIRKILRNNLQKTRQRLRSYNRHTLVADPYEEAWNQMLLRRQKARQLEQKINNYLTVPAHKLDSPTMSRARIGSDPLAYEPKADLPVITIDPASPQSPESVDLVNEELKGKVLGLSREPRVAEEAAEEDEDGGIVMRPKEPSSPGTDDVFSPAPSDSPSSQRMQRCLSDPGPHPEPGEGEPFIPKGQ

Which IC50 (Na^+ /H^+ exchanger) does the source give for `NC(N)=NC(=O)c1ccc(Oc2ccc3ncccc3c2)c(C(F)(F)F)c1` [Example 17, 4-(6-Quinolinoxy)-3-trifluoromethylbenzoylguanidine] here?
The IC50 was 40 nM.

With `NC(N)=NC(=O)c1ccc(Oc2cccnc2)c(C(F)(F)F)c1` [Example 16, 4-(3-Pyridyloxy)-3-trifluoromethylbenzoylguanidine] as the compound, how does the IC50 (Na^+ /H^+ exchanger) read?
The IC50 was 30 nM.

What does the source list for `NC(N)=NC(=O)c1nc(Cl)c(N)nc1N` [amiloride, Amiloride]?
hypotensive and saluretic side effects [1]: accompanied by a hypotensive and saluretic activity; suppression of artificially induced ventricular fibrillation [2]: suppressed completely

With `CCN(c1nc(N)c(C(=O)N=C(N)N)nc1Cl)C(C)C` [ethylisopropylamiloride, Ethylisopropylamiloride] as the compound, how does the “suppression of artificially induced ventricular fibrillation” value [2] read?
The value was “even more potent than amiloride itself”.

Source: patent publication US5665739A, “Substituted benzoylguanidines, process and their preparation, their use as pharmaceutical or diagnostic, and pharmaceutical containing them” (priority 1992, dated 1997)
